Experimental data: PMC11357638 (Molecules, 2024)
Numbering of substitutions follows the chain as printed. Values joined by “and” are separate entries in the source; they are usually repeats but may differ in a detail not shown here. Equal entries are not always repeated.

Columns and labels:
[1] = molecular target: T1, human TRPV4 (hTRPV4) channels (Homo sapiens, UniProt Q9HBA0); test: Whole-cell patch-clamp selectivity, hTRPV4 in HEK293T cells; format: cell-based; details: HEK-293T; 1000 μM CA, current caused by 0.1 μM GSK1016790A, mean ± SD, n = 5
T1 construct: expressed in transfected cells; host or cells: HEK293T

HEK293T cells = test: Cell viability of HEK293T cells (CCK-8 assay); format: cell-based, human; details: CA 1 mM, CCK-8, 6 hours treatment
[2] = molecular target: T2, human TRPV3 (hTRPV3) channel (Homo sapiens, UniProt Q8NET8); test: Whole-cell patch-clamp of hTRPV3 currents in transfected HEK293T cells; format: cell-based; details: WT hTRPV3 in HEK293T, whole-cell, activated by 50 μM 2-APB, at +80 mV, Hill fit, mean ± SD; read-out: IC50, inhibition of hTRPV3 currents
T2 construct: expressed in transfected cells; host or cells: HEK293T
T2 sequence (Q8NET8 1-790): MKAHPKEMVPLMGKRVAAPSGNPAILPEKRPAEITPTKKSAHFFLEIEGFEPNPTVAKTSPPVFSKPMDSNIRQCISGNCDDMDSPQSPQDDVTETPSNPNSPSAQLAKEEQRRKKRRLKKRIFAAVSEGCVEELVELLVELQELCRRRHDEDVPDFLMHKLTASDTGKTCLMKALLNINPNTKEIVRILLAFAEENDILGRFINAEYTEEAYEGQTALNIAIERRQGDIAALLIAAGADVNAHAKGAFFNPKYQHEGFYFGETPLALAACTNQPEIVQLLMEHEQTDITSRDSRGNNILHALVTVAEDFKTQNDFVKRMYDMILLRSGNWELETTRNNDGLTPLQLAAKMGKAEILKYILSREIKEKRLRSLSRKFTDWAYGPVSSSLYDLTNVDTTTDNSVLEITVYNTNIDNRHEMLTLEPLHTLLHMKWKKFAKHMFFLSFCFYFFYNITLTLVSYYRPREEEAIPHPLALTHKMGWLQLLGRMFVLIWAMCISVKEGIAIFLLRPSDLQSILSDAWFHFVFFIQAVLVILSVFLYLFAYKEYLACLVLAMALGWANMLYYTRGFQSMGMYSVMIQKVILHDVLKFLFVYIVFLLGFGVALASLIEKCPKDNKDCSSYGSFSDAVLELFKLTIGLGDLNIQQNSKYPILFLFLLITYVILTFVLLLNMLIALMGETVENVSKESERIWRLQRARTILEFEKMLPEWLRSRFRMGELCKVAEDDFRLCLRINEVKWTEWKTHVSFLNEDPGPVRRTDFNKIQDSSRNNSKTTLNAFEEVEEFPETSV

hTRPV3 T636A mutant = molecular target: T3, hTRPV3 T636A mutant (Homo sapiens, UniProt Q8NET8, T636A); test: Whole-cell patch-clamp of hTRPV3 T636A mutant in HEK293T cells; format: cell-based
T3 construct: expressed in transfected cells; host or cells: HEK293T
T3 sequence (Q8NET8 1-790 T636A): T2 sequence (Q8NET8 1-790) with T636A

[3] = tested on: TRPV3-mediated skin inflammation induced by carvacrol; test: Mouse model of dorsal skin dermatitis induced by skin sensitizer carvacrol; format: in vivo, C57BL/6J mice; details: mice, subcutaneous CA 0.1 and 1 mM (100 μL) once a day for 5 days, topical 2% carvacrol, versus carvacrol model group
[4] = molecular target: T4, human TRPM8 (hTRPM8) channels (Homo sapiens, UniProt Q7Z2W7); test: Whole-cell patch-clamp selectivity, hTRPM8 in HEK293T cells; format: cell-based; details: HEK-293T; 1000 μM CA, current caused by 500 μM menthol, mean ± SD, n = 5
T4 construct: expressed in transfected cells; host or cells: HEK293T

[5] = molecular target: T5, human TRPV1 (hTRPV1) channels (Homo sapiens, UniProt Q8NER1); test: Whole-cell patch-clamp selectivity, hTRPV1 in HEK293T cells; format: cell-based; details: HEK-293T; CA at 1000 μM, current caused by 1 μM capsaicin, mean ± SD, n = 5
T5 construct: expressed in transfected cells; host or cells: HEK293T

[6] = molecular target: T6, human TRPA1 (hTRPA1) channels (Homo sapiens, UniProt O75762); test: Whole-cell patch-clamp selectivity, hTRPA1 in HEK293T cells; format: cell-based; details: CA at 1000 μM, current induced by AITC at 300 μM, mean ± SD, n = 5
T6 construct: expressed in transfected cells; host or cells: HEK293T
T6 sequence (O75762 whole entry): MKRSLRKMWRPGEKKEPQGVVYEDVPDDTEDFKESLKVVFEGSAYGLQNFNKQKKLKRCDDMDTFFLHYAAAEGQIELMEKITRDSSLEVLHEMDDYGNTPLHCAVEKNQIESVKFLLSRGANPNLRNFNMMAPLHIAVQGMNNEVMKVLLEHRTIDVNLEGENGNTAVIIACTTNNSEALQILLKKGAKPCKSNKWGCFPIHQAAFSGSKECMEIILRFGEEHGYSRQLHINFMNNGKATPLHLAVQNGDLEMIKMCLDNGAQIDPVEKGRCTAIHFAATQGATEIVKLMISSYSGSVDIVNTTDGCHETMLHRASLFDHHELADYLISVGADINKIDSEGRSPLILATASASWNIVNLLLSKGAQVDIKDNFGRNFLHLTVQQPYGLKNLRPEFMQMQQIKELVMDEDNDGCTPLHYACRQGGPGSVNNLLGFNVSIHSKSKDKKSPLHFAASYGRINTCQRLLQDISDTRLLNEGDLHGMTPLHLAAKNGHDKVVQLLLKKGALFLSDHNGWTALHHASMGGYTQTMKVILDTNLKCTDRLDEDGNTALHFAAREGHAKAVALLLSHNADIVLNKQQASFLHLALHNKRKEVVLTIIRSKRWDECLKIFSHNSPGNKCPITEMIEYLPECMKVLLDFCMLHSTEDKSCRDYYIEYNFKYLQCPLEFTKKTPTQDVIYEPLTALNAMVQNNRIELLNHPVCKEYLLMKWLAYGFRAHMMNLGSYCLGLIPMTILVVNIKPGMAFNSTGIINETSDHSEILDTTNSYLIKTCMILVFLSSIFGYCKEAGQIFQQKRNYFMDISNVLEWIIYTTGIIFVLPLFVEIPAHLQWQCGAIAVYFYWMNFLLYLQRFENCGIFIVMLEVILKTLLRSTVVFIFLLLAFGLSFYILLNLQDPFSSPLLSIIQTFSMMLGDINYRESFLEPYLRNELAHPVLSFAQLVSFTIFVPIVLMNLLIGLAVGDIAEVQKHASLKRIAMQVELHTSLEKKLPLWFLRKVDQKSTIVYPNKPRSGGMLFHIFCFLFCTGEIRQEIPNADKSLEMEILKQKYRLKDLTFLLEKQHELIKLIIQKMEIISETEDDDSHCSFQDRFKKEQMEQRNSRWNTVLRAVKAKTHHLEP

T5 sequence (Q8NER1 whole entry): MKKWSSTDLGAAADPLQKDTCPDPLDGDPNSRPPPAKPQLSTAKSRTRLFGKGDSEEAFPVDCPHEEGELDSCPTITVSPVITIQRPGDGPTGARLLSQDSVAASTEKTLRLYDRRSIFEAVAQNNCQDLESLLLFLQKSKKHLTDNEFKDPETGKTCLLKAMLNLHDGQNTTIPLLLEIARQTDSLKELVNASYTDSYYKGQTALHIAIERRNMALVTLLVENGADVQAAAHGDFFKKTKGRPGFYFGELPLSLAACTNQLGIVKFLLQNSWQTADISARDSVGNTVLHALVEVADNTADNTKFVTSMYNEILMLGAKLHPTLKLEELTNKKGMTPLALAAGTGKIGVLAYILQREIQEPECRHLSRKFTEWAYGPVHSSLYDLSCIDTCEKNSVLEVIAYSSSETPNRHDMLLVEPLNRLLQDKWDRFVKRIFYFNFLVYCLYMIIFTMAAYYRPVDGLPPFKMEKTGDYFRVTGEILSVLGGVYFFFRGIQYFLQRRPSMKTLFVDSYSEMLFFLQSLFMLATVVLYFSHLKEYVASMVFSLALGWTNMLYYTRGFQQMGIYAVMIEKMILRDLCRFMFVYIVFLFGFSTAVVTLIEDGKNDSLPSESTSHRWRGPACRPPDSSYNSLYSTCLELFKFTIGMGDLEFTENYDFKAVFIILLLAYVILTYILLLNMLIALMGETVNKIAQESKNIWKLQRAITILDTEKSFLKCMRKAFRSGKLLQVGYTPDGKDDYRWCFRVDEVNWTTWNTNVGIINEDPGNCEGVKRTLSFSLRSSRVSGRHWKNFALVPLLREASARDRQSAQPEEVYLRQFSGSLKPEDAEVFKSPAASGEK
T1 sequence (Q9HBA0 whole entry): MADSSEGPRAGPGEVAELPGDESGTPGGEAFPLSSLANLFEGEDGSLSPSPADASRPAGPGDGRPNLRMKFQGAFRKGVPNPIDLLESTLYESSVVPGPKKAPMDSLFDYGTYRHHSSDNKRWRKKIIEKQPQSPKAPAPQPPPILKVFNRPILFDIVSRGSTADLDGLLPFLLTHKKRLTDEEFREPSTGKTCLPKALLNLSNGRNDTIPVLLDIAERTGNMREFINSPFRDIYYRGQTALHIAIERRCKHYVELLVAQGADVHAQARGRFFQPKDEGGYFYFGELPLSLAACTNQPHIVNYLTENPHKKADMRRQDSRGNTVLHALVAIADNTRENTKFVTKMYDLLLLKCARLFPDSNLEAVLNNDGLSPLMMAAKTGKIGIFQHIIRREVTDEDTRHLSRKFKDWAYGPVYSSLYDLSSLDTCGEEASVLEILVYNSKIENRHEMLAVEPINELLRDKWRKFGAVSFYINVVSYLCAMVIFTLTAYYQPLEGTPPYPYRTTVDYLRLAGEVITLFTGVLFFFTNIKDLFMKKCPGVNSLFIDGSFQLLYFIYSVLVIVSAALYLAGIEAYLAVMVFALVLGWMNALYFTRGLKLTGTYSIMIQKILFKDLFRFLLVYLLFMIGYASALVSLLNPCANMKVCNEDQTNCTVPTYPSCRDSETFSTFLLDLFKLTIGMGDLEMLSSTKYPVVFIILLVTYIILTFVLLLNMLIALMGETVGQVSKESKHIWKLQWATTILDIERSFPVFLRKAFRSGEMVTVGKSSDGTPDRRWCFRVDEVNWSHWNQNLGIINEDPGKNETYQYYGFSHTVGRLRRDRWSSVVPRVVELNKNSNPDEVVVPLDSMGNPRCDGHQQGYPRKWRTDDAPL
T4 sequence (Q7Z2W7 whole entry): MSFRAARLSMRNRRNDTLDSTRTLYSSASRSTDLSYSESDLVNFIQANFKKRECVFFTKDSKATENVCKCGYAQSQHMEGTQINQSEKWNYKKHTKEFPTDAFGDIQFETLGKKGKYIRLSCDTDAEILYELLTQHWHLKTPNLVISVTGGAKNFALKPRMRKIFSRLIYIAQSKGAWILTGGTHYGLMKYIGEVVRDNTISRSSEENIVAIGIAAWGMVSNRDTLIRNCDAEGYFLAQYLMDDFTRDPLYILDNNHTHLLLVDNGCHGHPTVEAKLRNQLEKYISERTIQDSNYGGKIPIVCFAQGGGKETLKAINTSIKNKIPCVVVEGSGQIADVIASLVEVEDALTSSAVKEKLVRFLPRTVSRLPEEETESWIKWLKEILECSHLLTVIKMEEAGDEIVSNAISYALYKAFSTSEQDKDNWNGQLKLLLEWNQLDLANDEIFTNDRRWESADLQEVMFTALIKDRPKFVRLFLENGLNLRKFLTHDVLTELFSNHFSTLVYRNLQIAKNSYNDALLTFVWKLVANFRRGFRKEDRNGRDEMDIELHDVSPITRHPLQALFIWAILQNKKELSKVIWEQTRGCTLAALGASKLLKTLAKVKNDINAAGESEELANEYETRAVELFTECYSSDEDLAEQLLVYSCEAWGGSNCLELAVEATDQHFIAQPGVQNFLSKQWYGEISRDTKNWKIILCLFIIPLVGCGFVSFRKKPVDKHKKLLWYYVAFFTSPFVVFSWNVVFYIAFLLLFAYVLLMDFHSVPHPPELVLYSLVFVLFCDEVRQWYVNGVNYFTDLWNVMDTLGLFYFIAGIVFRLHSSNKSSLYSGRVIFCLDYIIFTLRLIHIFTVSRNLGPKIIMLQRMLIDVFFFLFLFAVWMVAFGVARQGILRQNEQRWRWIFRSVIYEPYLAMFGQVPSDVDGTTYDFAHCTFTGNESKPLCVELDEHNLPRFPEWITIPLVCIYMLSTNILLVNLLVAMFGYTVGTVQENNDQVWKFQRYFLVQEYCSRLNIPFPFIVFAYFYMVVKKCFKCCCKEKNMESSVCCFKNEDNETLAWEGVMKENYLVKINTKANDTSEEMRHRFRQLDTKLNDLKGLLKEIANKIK

inhibition at 1000 µM [1]: ~4.6%
IC50 [2]: 102 µM and ~100 µM
IC50 (hTRPV3 T636A mutant; T636A hTRPV3, 50 μM 2-APB, +80 mV, Hill fit, read-out: IC50, inhibition of T636A mutant outward currents): > 1000 µM and 1000 µM
channel current inhibition by 500 μM CA compared to WT (hTRPV3 T636A mutant; T636A mutant, 50 μM 2-APB, 500 μM CA): significantly diminished
inhibition at 1000 µM [4]: ~20.1%
inhibition at 1000 µM [5]: ~20%
inhibition of human TRPA1 current [6]: about 22.9 ± 12.0%
Compound: O=C(O)/C=C/c1ccc(O)c(O)c1 [CA, caffeic acid]
cytotoxicity (cell viability) (HEK293T cells): did not cause any noticeable cytotoxicity
epidermal thickness ([3]; H&E sections): reduced epidermal thickness
dermatitis scores [3]: significantly reduced the dermatitis scores
